Reference: US9000166B2, “Metal complexes” (Merck Patent GmbH, priority 2005, dated 2015)

Assay: Solubility in various solvents at T=25° C.
Format: physicochemical
Text: Excellent solubility of the complex is found in many common organic solvents, even in polar protic solvents, such as ethanol and ethanol/water mixtures. As comparison in accordance with the prior art, the solubility of fac-tris[2-(2-pyridinyl-κN)phenyl-κC]iridium(III) (IrPPy) is indicated.

With “fac-Tris[2-(2-pyridinyl-κN)-5-(tri-n-butylphosphonium)phenyl)-κC]iridium(III) tribromide [Example 1]” as the substance, how does the Solubility (Acetone) read?
Its Solubility is “unlimited”.

And the Solubility (Chloroform)?
Its Solubility is “unlimited”.

And the Solubility (DMF)?
The Solubility was “unlimited”.

And the Solubility (DMSO)?
The Solubility was “unlimited”.

And the Solubility (Dichloromethane)?
Its Solubility is “unlimited”.

And the Solubility (Ethanol)?
Its Solubility is 134.0 mg/mL.

And the Solubility (Hexane)?
The Solubility was over 1.0 mg/mL.

What about the Solubility (NMP) of the same substance?
The Solubility was “unlimited”.

What about the Solubility (Toluene) of the same substance?
Its Solubility is “unlimited”.

And the Solubility (Water)?
Its Solubility is 11.5 mg/mL.

What about the Solubility (Water/ethanol (1:1, v,v)) of the same substance?
Its Solubility is 43.0 mg/mL.
